Key:
Assay in all cases: relative viability (nuclei count vs DMSO), 5 days (fraction); higher = more cells survive
BI-D1870 + Decitabine = compound: CC(C)CCN1c2nc(Nc3cc(F)c(O)c(F)c3)ncc2N(C)C(=O)C1C [BI-D1870] + Nc1ncn([C@H]2C[C@H](O)[C@@H](CO)O2)c(=O)n1 [Decitabine] (partner 2 µM)
How it was run: (§1)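 Lung cancer cell lines, seeded in 1536-well plates, were treated the following day by pin tool with a single drug or with five library-drug doses (not always all listed) in √10 steps on top of a fixed anchor-drug dose. Cells were fixed and nuclei stained in one step after 5 days, and nuclei were counted. Relative viability is the nuclei count for treated wells divided by that for vehicle wells, reported as medians of duplicate plates.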

BI-D1870 + Vorinostat = compound: CC(C)CCN1c2nc(Nc3cc(F)c(O)c(F)c3)ncc2N(C)C(=O)C1C [BI-D1870] + O=C(CCCCCCC(=O)Nc1ccccc1)NO [Vorinostat] (partner 1 µM)
How it was run: as §1

Zebularine + Lapatinib = compound: O=c1ncccn1[C@@H]1O[C@H](CO)[C@@H](O)[C@H]1O [Zebularine] + CS(=O)(=O)CCNCc1ccc(-c2ccc3ncnc(Nc4ccc(OCc5cccc(F)c5)c(Cl)c4)c3c2)o1 [Lapatinib] (partner 2 µM)
How it was run: as §1

Zebularine + Alpelisib = compound: O=c1ncccn1[C@@H]1O[C@H](CO)[C@@H](O)[C@H]1O [Zebularine] + Cc1nc(NC(=O)N2CCC[C@H]2C(N)=O)sc1-c1ccnc(C(C)(C)C(F)(F)F)c1 [Alpelisib] (partner 2 µM)
How it was run: as §1

Cell Line	relative viability (BI-D1870 + Decitabine; first compound 0.04 µM)	relative viability (BI-D1870 + Decitabine; first compound 0.1265 µM)	relative viability (BI-D1870 + Decitabine; first compound 0.4 µM)	relative viability (BI-D1870 + Decitabine; first compound 1.265 µM)	relative viability (BI-D1870 + Decitabine; first compound 4 µM)	relative viability (BI-D1870 + Vorinostat; first compound 0.04 µM)	relative viability (BI-D1870 + Vorinostat; first compound 0.1265 µM)	relative viability (BI-D1870 + Vorinostat; first compound 0.4 µM)	relative viability (BI-D1870 + Vorinostat; first compound 1.265 µM)	relative viability (BI-D1870 + Vorinostat; first compound 4 µM)	relative viability (Zebularine + Lapatinib; first compound 1 µM)	relative viability (Zebularine + Lapatinib; first compound 3.162 µM)	relative viability (Zebularine + Lapatinib; first compound 10 µM)	relative viability (Zebularine + Lapatinib; first compound 31.62 µM)	relative viability (Zebularine + Lapatinib; first compound 100 µM)	relative viability (Zebularine + Alpelisib; first compound 1 µM)	relative viability (Zebularine + Alpelisib; first compound 3.162 µM)	relative viability (Zebularine + Alpelisib; first compound 10 µM)	relative viability (Zebularine + Alpelisib; first compound 31.62 µM)	relative viability (Zebularine + Alpelisib; first compound 100 µM)
HOP-62	0.212	0.241	0.208	0.198	0.314	0.737	0.669	0.602	0.703	0.464	1.07	0.783	0.467	0.368	0.144	0.932	0.64	0.603	0.22	0.127
LC-2-ad	0.834	0.72	0.842	0.893	0.791	0.696	0.646	0.701	0.705	0.56	1.05	0.886	0.722	0.584	0.168	1.03	0.865	0.539	0.491	0.135
LCLC-97TM1	0.236	0.231	0.209	0.255	0.262	1	0.684	0.722	0.868	0.472	0.784	0.665	0.451	0.376	0.139	0.23	0.224	0.193	0.12	0.112
LK-2	0.373	0.317	0.379	0.353	0.342	0.351	0.391	0.468	0.277	0.279	0.947	1.04	0.584	0.539	0.283	1.15	1.29	0.541	0.665	0.407
LOU-NH91	0.876	0.8	0.792	0.821	0.629	0.991	0.859	0.876	0.858	0.655	0.715	0.731	0.712	0.705	0.606	0.703	0.719	0.686	0.693	0.56
LU99A	0.883	0.814	0.898	0.837	0.725	0.584	0.422	0.412	0.428	0.345	1.14	0.838	0.615	0.421	0.176	0.58	0.506	0.451	0.292	0.152
LXF-289	0.35	0.382	0.372	0.411	0.416	0.681	0.738	0.695	0.695	0.527	0.986	0.92	0.818	0.783	0.271	1.08	1.06	0.827	0.811	0.329
NCI-H23	0.336	0.329	0.306	0.333	0.242	0.555	0.619	0.489	0.448	0.202	1.15	1.12	–	1.21	0.756	0.577	0.709	–	0.775	0.563
NCI-H322M	0.721	0.631	0.68	0.655	0.729	0.919	0.879	0.76	0.781	0.769	0.608	0.589	0.586	0.601	0.576	0.732	0.756	0.772	0.673	0.676
NCI-H358	0.201	0.195	0.202	0.21	0.229	0.834	0.61	0.519	0.386	0.229	0.48	0.401	0.44	0.467	0.303	0.888	0.786	0.578	0.495	0.266
NCI-H460	0.548	0.459	0.473	0.593	0.443	0.922	0.643	0.672	0.37	0.0691	1.05	0.897	0.255	0.294	0.0468	0.519	0.679	0.217	0.215	0.115
NCI-H520	0.406	0.494	0.597	0.649	0.471	0.716	0.755	0.649	0.464	0.198	1.14	0.863	0.477	0.277	0.256	1.1	0.835	0.429	0.375	0.275
NCI-H596	1.06	0.857	0.956	1.14	0.999	0.666	0.591	0.65	0.59	0.511	1.19	1.11	0.759	1.18	1	0.476	0.462	0.427	0.566	0.483
NCI-H647	0.386	0.339	0.481	0.455	0.537	0.666	0.346	0.669	0.536	0.335	1.35	1.03	0.227	0.212	0.14	1.05	0.932	0.422	0.246	0.167
NCI-H650	0.336	0.339	0.331	0.314	0.286	0.478	0.407	0.413	0.413	0.386	1.32	0.805	0.496	0.565	0.276	1.04	1.2	0.894	0.462	0.319
NCI-H661	0.524	0.555	0.542	0.651	0.546	0.815	0.806	0.764	0.691	0.451	0.443	0.463	0.461	0.436	0.583	0.653	0.498	0.333	0.737	0.603

Cell Line	relative viability (BI-D1870 + Decitabine; first compound 0.04 µM)	relative viability (BI-D1870 + Decitabine; first compound 0.1265 µM)	relative viability (BI-D1870 + Decitabine; first compound 0.4 µM)	relative viability (BI-D1870 + Decitabine; first compound 1.265 µM)	relative viability (BI-D1870 + Decitabine; first compound 4 µM)	relative viability (BI-D1870 + Vorinostat; first compound 0.04 µM)	relative viability (BI-D1870 + Vorinostat; first compound 0.1265 µM)	relative viability (BI-D1870 + Vorinostat; first compound 0.4 µM)	relative viability (BI-D1870 + Vorinostat; first compound 1.265 µM)	relative viability (BI-D1870 + Vorinostat; first compound 4 µM)	relative viability (Zebularine + Lapatinib; first compound 1 µM)	relative viability (Zebularine + Lapatinib; first compound 3.162 µM)	relative viability (Zebularine + Lapatinib; first compound 10 µM)	relative viability (Zebularine + Lapatinib; first compound 31.62 µM)	relative viability (Zebularine + Lapatinib; first compound 100 µM)	relative viability (Zebularine + Alpelisib; first compound 1 µM)	relative viability (Zebularine + Alpelisib; first compound 3.162 µM)	relative viability (Zebularine + Alpelisib; first compound 10 µM)	relative viability (Zebularine + Alpelisib; first compound 31.62 µM)	relative viability (Zebularine + Alpelisib; first compound 100 µM)
NCI-H727	1.02	0.883	0.909	0.921	1.01	1.32	1.22	0.986	1.19	1.08	0.724	0.797	0.65	0.948	0.772	–	0.531	0.564	0.665	0.485
NCI-H838	0.47	0.483	0.477	0.444	0.523	0.719	0.643	0.682	0.68	0.558	1.19	1.14	0.632	0.834	0.382	1.04	1.05	0.707	0.857	0.404
NCI-H1355	0.363	0.31	0.356	0.412	0.394	0.74	0.613	0.657	0.731	0.608	1.31	0.851	0.854	0.681	0.357	0.856	0.798	0.728	0.635	0.385
NCI-H1395	0.68	0.671	0.707	0.738	0.718	0.774	0.641	0.801	0.705	0.597	1.27	1.04	0.799	0.702	0.507	1.32	0.941	0.82	0.785	0.598
NCI-H1437	0.59	0.53	0.756	0.629	0.56	0.809	0.747	0.749	0.76	0.492	0.925	0.934	–	0.787	0.333	1.16	1.03	–	1.14	0.319
NCI-H1651	0.615	0.592	0.537	0.64	0.617	0.557	0.536	0.472	0.623	0.451	0.917	1.07	–	0.94	0.515	0.875	1.05	–	0.769	0.527
NCI-H1666	0.711	0.701	0.716	0.732	0.677	1.03	1.01	0.942	0.956	1.02	0.561	0.57	0.49	0.667	0.593	1.16	0.984	0.852	0.932	0.618
NCI-H1734	0.482	0.448	0.531	0.559	0.525	0.805	0.744	0.78	0.779	0.617	1.05	1.01	0.452	0.5	0.493	0.738	0.725	0.387	0.396	0.347
NCI-H1755	0.716	0.685	0.701	0.715	0.692	0.938	0.738	0.705	0.849	0.788	1.17	0.991	0.802	1.11	0.497	1.07	1.03	0.538	0.92	0.61
NCI-H1793	0.513	0.439	0.528	0.681	0.632	0.914	0.718	0.615	1.04	0.606	0.826	0.882	0.339	0.648	0.304	0.812	0.7	0.391	0.357	0.193
NCI-H1915	0.267	0.247	0.285	0.234	0.271	0.55	0.484	0.513	0.489	0.436	1.12	0.961	0.717	1.13	0.979	1.18	1.05	0.984	1.05	0.93
NCI-H1944	0.435	0.415	0.388	0.508	0.432	0.894	0.5	0.484	0.57	0.405	0.975	0.864	0.613	0.932	0.757	0.858	0.906	0.629	0.805	0.688
NCI-H1975	0.436	0.348	0.411	0.361	0.368	0.747	0.617	0.686	0.664	0.425	0.982	0.872	0.478	0.392	0.267	0.705	0.555	0.4	0.354	0.233
NCI-H1993	0.634	0.438	0.668	0.647	0.579	0.763	0.689	0.767	1.1	0.631	0.848	0.691	–	0.718	0.735	0.666	0.76	–	0.68	0.699
NCI-H2009	0.379	0.366	0.394	0.397	0.3	0.776	0.629	0.76	0.599	0.461	0.941	0.755	0.753	0.757	0.359	1.18	1.13	0.97	0.947	0.392
NCI-H2023	0.204	0.188	0.232	0.248	0.281	0.795	0.507	0.571	0.643	0.457	1.03	0.686	0.786	0.717	0.292	0.697	0.551	0.533	0.53	0.287
